Test results from patent publication US20250034159A1, “INHIBITORS OF EPIDERMAL GROWTH FACTOR RECEPTOR” (ORIC Pharmaceuticals, Inc., priority 2021, published 2025).
Read-outs that look alike come from different tables or passages of the source.

Tests used:
BaF3_EGFR d19/CS cells = test: Biological Activity Assay D: BaF3 cell proliferation assay, EGFR exon 19 deletion/C797S (BaF3 d19/CS); format: cell-based; conditions: Ba/F3 EGFR, read-out: BaF3 d19/CS IC50
[1] = target: recombinant human EGFR exon 19 deletion/C797S double mutant protein (Homo sapiens (Human), UniProt P00533, C797S/DEL746-750); test: Biological Activity Assay C: biochemical assay against EGFR exon 19 deletion/C797S protein (EGFR d19/CS)
How it was run: (§1)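 IC50 values were fitted with a 4-parameter model to reaction slopes taken from 90 kinetic reads spaced 120 s apart. The Phosphosens sensor/ATP working solution was 40 uM/4 mM, and compound was dosed as 16-point dilutions at 2.5% final DMSO.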

Ba/F3_EGFR WT cells = test: Biological Activity Assay D: BaF3 cell proliferation assay, EGFR wild-type (BaF3 WT); format: cell-based; conditions: Ba/F3 EGFR, read-out: BaF3 WT IC50
BaF3_EGFR LR/CS cells = test: Biological Activity Assay D: BaF3 cell proliferation assay, EGFR L858R/C797S mutant (BaF3 LR/CS); format: cell-based; conditions: Ba/F3 EGFR, read-out: BaF3 LR/CS IC50
[2] = target: recombinant human EGFR L858R/C797S double mutant protein (Homo sapiens (Human), UniProt P00533, C797S/L858R); test: Biological Activity Assay B: biochemical assay against EGFR L858R/C797S protein (EGFR LR/CS)
How it was run: as §1

[3] = BaF3_EGFR d19/CS cells, ~72 hours, CellTiter-Glo
[4] = Ba/F3_EGFR WT cells, ~72 hours, CellTiter-Glo
[5] = BaF3_EGFR LR/CS cells, ~72 hours, CellTiter-Glo

recombinant human EGFR L858R/C797S double mutant protein, sequence (P00533 25-1210 C797S/L858R): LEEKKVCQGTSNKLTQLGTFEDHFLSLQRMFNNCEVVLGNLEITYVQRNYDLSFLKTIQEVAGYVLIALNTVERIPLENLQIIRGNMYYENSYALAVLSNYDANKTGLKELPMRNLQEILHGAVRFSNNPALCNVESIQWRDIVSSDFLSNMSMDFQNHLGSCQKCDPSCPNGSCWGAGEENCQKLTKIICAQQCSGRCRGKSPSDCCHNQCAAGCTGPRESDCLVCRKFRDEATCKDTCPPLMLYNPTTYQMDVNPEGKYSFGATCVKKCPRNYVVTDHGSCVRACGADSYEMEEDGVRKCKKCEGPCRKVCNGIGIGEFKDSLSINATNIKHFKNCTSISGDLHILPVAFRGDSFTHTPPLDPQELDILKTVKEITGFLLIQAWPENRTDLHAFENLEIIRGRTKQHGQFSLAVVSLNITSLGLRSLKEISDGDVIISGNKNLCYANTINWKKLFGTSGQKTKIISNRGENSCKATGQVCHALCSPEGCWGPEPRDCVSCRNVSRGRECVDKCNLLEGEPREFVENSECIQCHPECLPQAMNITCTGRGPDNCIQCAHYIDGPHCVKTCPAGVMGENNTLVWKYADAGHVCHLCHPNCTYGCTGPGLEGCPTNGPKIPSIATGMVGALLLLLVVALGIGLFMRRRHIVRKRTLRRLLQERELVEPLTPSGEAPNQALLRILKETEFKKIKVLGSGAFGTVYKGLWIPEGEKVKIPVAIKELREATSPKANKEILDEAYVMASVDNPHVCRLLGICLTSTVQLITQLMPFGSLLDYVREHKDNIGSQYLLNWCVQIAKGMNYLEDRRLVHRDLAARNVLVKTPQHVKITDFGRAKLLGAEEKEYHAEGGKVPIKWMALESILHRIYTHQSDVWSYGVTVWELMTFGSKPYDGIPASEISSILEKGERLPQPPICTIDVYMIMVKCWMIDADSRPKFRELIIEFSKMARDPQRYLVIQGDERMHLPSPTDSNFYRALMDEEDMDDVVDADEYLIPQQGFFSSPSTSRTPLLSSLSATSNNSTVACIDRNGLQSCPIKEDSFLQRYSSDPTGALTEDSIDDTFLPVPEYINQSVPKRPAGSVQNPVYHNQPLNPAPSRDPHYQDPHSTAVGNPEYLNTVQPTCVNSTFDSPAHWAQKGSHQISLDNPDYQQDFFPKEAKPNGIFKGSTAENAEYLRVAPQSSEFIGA
recombinant human EGFR exon 19 deletion/C797S double mutant protein, sequence (P00533 other isoform, or with tags, fused parts or gaps C797S/del 1-668/del 746-750 limits assumed): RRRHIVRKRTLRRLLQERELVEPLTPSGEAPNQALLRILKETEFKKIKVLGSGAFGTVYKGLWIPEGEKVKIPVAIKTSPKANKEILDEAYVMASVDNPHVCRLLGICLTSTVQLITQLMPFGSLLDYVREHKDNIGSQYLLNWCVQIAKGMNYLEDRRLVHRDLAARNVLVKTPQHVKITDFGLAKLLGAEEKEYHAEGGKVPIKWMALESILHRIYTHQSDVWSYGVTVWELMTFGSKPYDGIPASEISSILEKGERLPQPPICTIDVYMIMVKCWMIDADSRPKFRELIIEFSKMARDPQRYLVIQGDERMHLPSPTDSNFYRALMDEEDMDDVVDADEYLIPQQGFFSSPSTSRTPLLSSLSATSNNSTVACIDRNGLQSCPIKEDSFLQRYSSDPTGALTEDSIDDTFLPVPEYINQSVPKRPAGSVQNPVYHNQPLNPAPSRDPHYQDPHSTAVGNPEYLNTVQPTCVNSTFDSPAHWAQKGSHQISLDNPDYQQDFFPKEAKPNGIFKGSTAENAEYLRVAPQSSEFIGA

Compound	IC50 (BaF3_EGFR d19/CS cells; 72 h) [nM]	IC50 [1] [nM]	IC50 (Ba/F3_EGFR WT cells; 72 h) [nM]	IC50 (BaF3_EGFR LR/CS cells; 72 h) [nM]	IC50 [2] [nM]	IC50 (BaF3_EGFR d19/CS cells; [3]) [nM]	IC50 (Ba/F3_EGFR WT cells; [4]) [nM]	IC50 (BaF3_EGFR LR/CS cells; [5]) [nM]
CC(O)Cn1cc(-c2ncnc3oc(-c4ccccc4)cc23)c(-c2ccc(F)cc2)n1 (stereo not shown) [Example 58, 1-[3-(4-Fluorophenyl)-4-(6-phenylfuro[2,3-d]pyrimidin-4-yl)-1H-pyrazol-1-yl]propan-2-ol]	43.7	0.177	2100	58.2	0.349			
CC1(Cn2cc(-c3ncnc4oc(-c5ccccc5)cc34)c(-c3ccc(F)cc3)n2)COC1 [Example 59, 4-{3-(4-fluorophenyl)-1-[(3-methyloxetan-3-yl)methyl]-1H-pyrazol-4-yl}-6-phenylfuro[2,3-d]pyrimidine]		0.752			1.27	213	5950	236
Fc1ccc(-c2n[nH]cc2-c2ncnc3oc(-c4ccccc4)cc23)cc1 [Example 60, 4-[3-(4-Fluorophenyl)-1H-pyrazol-4-yl]-6-phenylfuro[2,3-d]pyrimidine]		0.419			0.526	118	2270	88.3
CN(C)S(=O)(=O)CCCn1cc(-c2ncnc3oc(-c4ccccc4)cc23)c(-c2ccc(F)cc2)n1 [Example 61, 3-[3-(4-Fluorophenyl)-4-(6-phenylfuro[2,3-d]pyrimidin-4-yl)-1H-pyrazol-1-yl]-N,N-dimethylpropane-1-sulfonamide]		0.907			0.601	24.4	1140	73.2
CC(O)CCn1cc(-c2ncnc3oc(-c4ccccc4)cc23)c(-c2ccc(F)cc2)n1 (stereo not shown) [Example 62, 4-[3-(4-Fluorophenyl)-4-(6-phenylfuro[2,3-d]pyrimidin-4-yl)-1H-pyrazol-1-yl]butan-2-ol]		0.703			0.527	30.1	1150	45
Fc1ccc(-c2nn(CCC3COC3)cc2-c2ncnc3oc(-c4ccccc4)cc23)cc1 [Example 64, 4-{3-(4-Fluorophenyl)-1-[2-(oxetan-3-yl)ethyl]-1H-pyrazol-4-yl}-6-phenylfuro[2,3-d]pyrimidine]		1.1			0.779	62.9	1460	99.1
NS(=O)(=O)CCCn1cc(-c2ncnc3oc(-c4ccccc4)cc23)c(-c2ccc(F)cc2)n1 [Example 65, 3-[3-(4-Fluorophenyl)-4-(6-phenylfuro[2,3-d]pyrimidin-4-yl)-1H-pyrazol-1-yl]propane-1-sulfonamide]		0.341			0.263	19.9	589	24.3
CC(C)(O)CCc1nc(-c2ccc(F)cc2)c(-c2ncnc3sc(-c4ccccc4)cc23)o1 [Example 66, 4-[4-(4-fluorophenyl)-5-(6-phenylthieno[2,3-d]pyrimidin-4-yl)-1,3-oxazol-2-yl]-2-methylbutan-2-ol]		8.12			14.5	1290	> 20000	2690
CC(C)(O)CCn1cc(-c2ncnc3sc(-c4ccccc4)cc23)c(-c2ccc(F)cc2)n1 [Example 67, 4-[3-(4-fluorophenyl)-4-(6-phenylthieno[2,3-d]pyrimidin-4-yl)-1H-pyrazol-1-yl]-2-methylbutan-2-ol]		18.6			15.6	1050	8040	1630
Fc1ccc(-c2nn(CC3CCO3)cc2-c2ncnc3oc(-c4ccccc4)cc23)cc1 (stereo not shown) [Example 69, 4-{3-(4-Fluorophenyl)-1-[(oxetan-2-yl)methyl]-1H-pyrazol-4-yl}-6-phenylfuro[2,3-d]pyrimidine]		0.378			0.452	68.6	2340	40.2
N#CCCn1cc(-c2ncnc3oc(-c4ccccc4)cc23)c(-c2ccc(F)cc2)n1 [Example 70, 3-[3-(4-Fluorophenyl)-4-(6-phenylfuro[2,3-d]pyrimidin-4-yl)-1H-pyrazol-1-yl]propanenitrile]		0.346			0.328	11.5	681	7.9
FCCCCn1cc(-c2ncnc3oc(-c4ccccc4)cc23)c(-c2ccc(F)cc2)n1 [Example 71, 4-[1-(4-fluorobutyl)-3-(4-fluorophenyl)-1H-pyrazol-4-yl]-6-phenylfuro[2,3-d]pyrimidine]		1.62			1.25	151	2620	84.1
OCCCc1nc(-c2ccc(F)cc2)c(-c2ncnc3sc(-c4ccccc4)cc23)o1 [Example 74, 3-[4-(4-fluorophenyl)-5-(6-phenylthieno[2,3-d]pyrimidin-4-yl)-1,3-oxazol-2-yl]propan-1-ol]		2.9			9.37	920	> 20000	267
COC1(Cn2cc(-c3ncnc4oc(-c5ccccc5)cc34)c(-c3ccc(F)cc3)n2)COC1 [Example 75, 4-{3-(4-fluorophenyl)-1-[(3-methoxyoxetan-3-yl)methyl]-1H-pyrazol-4-yl}-6-phenylfuro[2,3-d]pyrimidine]		1.49			1.01	150	5920	131
Fc1ccc(-c2nn(C3CCOCC3)cc2-c2ncnc3oc(-c4ccccc4)cc23)cc1 [Example 76, 4-[3-(4-Fluorophenyl)-1-(oxan-4-yl)-1H-pyrazol-4-yl]-6-phenylfuro[2,3-d]pyrimidine]		0.7			0.94	31	2020	45.5
CC(C)(C(N)=O)n1cc(-c2ncnc3oc(-c4ccccc4)cc23)c(-c2ccc(F)cc2)n1 [Example 77, 2-[3-(4-Fluorophenyl)-4-(6-phenylfuro[2,3-d]pyrimidin-4-yl)-1H-pyrazol-1-yl]-2-methylpropanamide]		1.61			1.36	72.2	5180	139
OCC(F)(F)Cn1cc(-c2ncnc3oc(-c4ccccc4)cc23)c(-c2ccc(F)cc2)n1 [Example 78, 2,2-Difluoro-3-[3-(4-fluorophenyl)-4-(6-phenylfuro[2,3-d]pyrimidin-4-yl)-1H-pyrazol-1-yl]propan-1-ol]		0.37			0.48	18.4	2730	23.2
CS(=O)(=O)Cn1cc(-c2ncnc3oc(-c4ccccc4)cc23)c(-c2ccc(F)cc2)n1 [Example 79, 4-{3-(4-fluorophenyl)-1-[(methanesulfonyl)methyl]-1H-pyrazol-4-yl}-6-phenylfuro[2,3-d]pyrimidine]		1.99			2.64	111	10200	116
Fc1ccc(-c2nn(C3COC3)nc2-c2ncnc3oc(-c4ccccc4)cc23)cc1 [Example 81, 4-[5-(4-fluorophenyl)-2-(oxetan-3-yl)-2H-1,2,3-triazol-4-yl]-6-phenylfuro[2,3-d]pyrimidine]		1.12			2.58	330	13500	241
CC(C)(O)CCn1nc(-c2ccc(F)cc2)c(-c2ncnc3oc(-c4ccccc4)cc23)n1 [Example 82, 4-[4-(4-fluorophenyl)-5-(6-phenylfuro[2,3-d]pyrimidin-4-yl)-2H-1,2,3-triazol-2-yl]-2-methylbutan-2-ol]		2.86			4.33	597	> 20000	392
